Values of other authors as cited in US6455574B1, “Therapeutic combination” (Pfizer Inc., priority 1997, dated 2002).

Tests used:
[1] = tested on: calcium channel; conditions: see International Patent Application Number PCT/EP94/02697
[2] = tested on: smooth muscle cell migration; conditions: see International Patent Application Number PCT/EP95/00847

| SMILES | calcium channel blocking activity [1] | inhibition of smooth muscle cell migration [2] |
| --- | --- | --- |
| CCOC(=O)C1=C(COCCN)NC(C)=C(C(=O)OC)[C@H]1c1ccccc1Cl (single isomer, unassigned) [R(+) isomer] | little or no | potent inhibitor |
| CCOC(=O)C1=C(COCCN)NC(C)=C(C(=O)OC)[C@@H]1c1ccccc1Cl (single isomer, unassigned) [S(−) isomer] | substantially confined to the S(−) isomer | – |
